Measurements reported in ChEMBL document CHEMBL3885881, “DrugMatrix”.

Species on record: Rattus norvegicus
Assay: DrugMatrix - Regimen: Daily Repeat
Assay type: toxicity, organism-based, Sprague-Dawley
Parameters: regimen Daily Repeat, gender Male, age 6-8 weeks
Settings: in vivo, iv, vehicle 100 % SALINE; for ABSOLUTE BASOPHIL / ABSOLUTE EOSINOPHIL / ABSOLUTE LYMPHOCYTE / ABSOLUTE MONOCYTE / ABSOLUTE SEGMENTED NEUTROPHIL / BASOPHIL / EOSINOPHIL / ERYTHROCYTE COUNT / HEMATOCRIT / HEMOGLOBIN / LEUKOCYTE COUNT / LYMPHOCYTE / MEAN CORPUSCULAR HEMOGLOBIN / MEAN CORPUSCULAR HEMOGLOBIN CONCENTRATION / MEAN CORPUSCULAR VOLUME / MONOCYTE / NEUTROPHIL / NUCLEATED RED BLOOD CELLS / PLATELET COUNT: tissue Blood
[1] = 0 mg/kg, 72 h, dose level Control, time 3 day
[2] = 0 mg/kg, 72 h, tissue Plasma, dose level Control, time 3 day
[3] = 0 mg/kg, 120 h, dose level Control, time 5 day
[4] = 0 mg/kg, 120 h, tissue Plasma, dose level Control, time 5 day
[5] = […], 72 h, dose 0.56 mg/Kg, dose level High, time 3 day
[6] = […], 72 h, tissue Plasma, dose 0.56 mg/Kg, dose level High, time 3 day
[7] = […], 120 h, dose 0.56 mg/Kg, dose level High, time 5 day
[8] = […], 120 h, tissue Plasma, dose 0.56 mg/Kg, dose level High, time 5 day

INSULIN HUMAN
ABSOLUTE BASOPHIL [1]: 0 CELLS/uL | ABSOLUTE EOSINOPHIL [1]: 46.17 CELLS/uL | ABSOLUTE LYMPHOCYTE [1]: 9089 CELLS/uL | ABSOLUTE MONOCYTE [1]: 242 CELLS/uL | ABSOLUTE SEGMENTED NEUTROPHIL [1]: 856.17 CELLS/uL | BASOPHIL [1]: 0% | EOSINOPHIL [1]: 0.5% | ERYTHROCYTE COUNT [1]: 5.1 x10E6/uL | HEMATOCRIT [1]: 32.5% | HEMOGLOBIN [1]: 12.35 G/DL | LEUKOCYTE COUNT [1]: 10.23 x10E3/uL | LYMPHOCYTE [1]: 88.5% | MEAN CORPUSCULAR HEMOGLOBIN [1]: 24.18 pg | MEAN CORPUSCULAR HEMOGLOBIN CONCENTRATION [1]: 38 G/DL | MEAN CORPUSCULAR VOLUME [1]: 63.62 fL | MONOCYTE [1]: 2.5% | NEUTROPHIL [1]: 8.5% | NUCLEATED RED BLOOD CELLS [1]: 0.17 /100WBC | PLATELET COUNT [1]: 1038.67 x10E3/uL | ALANINE AMINOTRANSFERASE [2]: 51.33 u/L | ALBUMIN [2]: 3.9 G/DL | ALKALINE PHOSPHATASE [2]: 409.33 u/L | ASPARTATE AMINOTRANSFERASE [2]: 91.67 u/L | CHLORIDE [2]: 97.83 MEQ/L | CHOLESTEROL [2]: 79.33 mg/dL | CREATINE PHOSPHOKINASE [2]: 628.67 u/L | CREATININE [2]: 0.21 mg/dL | LACTATE DEHYDROGENASE [2]: 120.33 u/L | PHOSPHORUS [2]: 10.48 mg/dL | POTASSIUM [2]: 5.83 MEQ/L | TOTAL BILIRUBIN [2]: 0.2 mg/dL | TOTAL PROTEIN [2]: 6.15 G/DL | URIC ACID [2]: 0.45 mg/dL | ABSOLUTE BASOPHIL [3]: 0 CELLS/uL | ABSOLUTE EOSINOPHIL [3]: 12.17 CELLS/uL | ABSOLUTE LYMPHOCYTE [3]: 10388 CELLS/uL | ABSOLUTE MONOCYTE [3]: 140.17 CELLS/uL | ABSOLUTE SEGMENTED NEUTROPHIL [3]: 1576.33 CELLS/uL | BASOPHIL [3]: 0% | EOSINOPHIL [3]: 0.17% | ERYTHROCYTE COUNT [3]: 5.71 x10E6/uL | HEMATOCRIT [3]: 35.57% | LEUKOCYTE COUNT [3]: 12.12 x10E3/uL | LYMPHOCYTE [3]: 85.83% | MEAN CORPUSCULAR HEMOGLOBIN [3]: 23.53 pg | MEAN CORPUSCULAR HEMOGLOBIN CONCENTRATION [3]: 37.73 G/DL | MONOCYTE [3]: 1% | NEUTROPHIL [3]: 13% | NUCLEATED RED BLOOD CELLS [3]: 0.33 /100WBC | PLATELET COUNT [3]: 1347.67 x10E3/uL | ALANINE AMINOTRANSFERASE [4]: 47.83 u/L | ALKALINE PHOSPHATASE [4]: 380 u/L | ASPARTATE AMINOTRANSFERASE [4]: 81.17 u/L | BLOOD UREA NITROGEN [4]: 14.67 mg/dL | CARBON DIOXIDE [4]: 36.17 mmol/L | CHLORIDE [4]: 98.17 MEQ/L | CHOLESTEROL [4]: 69.33 mg/dL | CREATINE PHOSPHOKINASE [4]: 547.17 u/L | CREATININE [4]: 0.28 mg/dL | GLUCOSE [4]: 140.5 mg/dL | LACTATE DEHYDROGENASE [4]: 153.83 u/L | LIPASE [4]: 7.83 u/L | POTASSIUM [4]: 5.86 MEQ/L | TOTAL BILIRUBIN [4]: 0.17 mg/dL | TOTAL PROTEIN [4]: 6.33 G/DL | URIC ACID [4]: 0.68 mg/dL | ABSOLUTE BASOPHIL [5]: 0 CELLS/uL | ABSOLUTE EOSINOPHIL [5]: 0 CELLS/uL | ABSOLUTE LYMPHOCYTE [5]: 9557.33 CELLS/uL | ABSOLUTE MONOCYTE [5]: 233.33 CELLS/uL | ABSOLUTE SEGMENTED NEUTROPHIL [5]: 942.67 CELLS/uL | BASOPHIL [5]: 0% | EOSINOPHIL [5]: 0% | ERYTHROCYTE COUNT [5]: 5.18 x10E6/uL | HEMATOCRIT [5]: 33.13% | HEMOGLOBIN [5]: 12.73 G/DL | LEUKOCYTE COUNT [5]: 10.73 x10E3/uL | LYMPHOCYTE [5]: 89.33% | MEAN CORPUSCULAR HEMOGLOBIN [5]: 24.6 pg | MEAN CORPUSCULAR HEMOGLOBIN CONCENTRATION [5]: 38.43 G/DL | MEAN CORPUSCULAR VOLUME [5]: 64 fL | MONOCYTE [5]: 2% | NUCLEATED RED BLOOD CELLS [5]: 0.33 /100WBC | PLATELET COUNT [5]: 1173.33 x10E3/uL | ALANINE AMINOTRANSFERASE [6]: 50.67 u/L | ALBUMIN [6]: 3.9 G/DL | ALKALINE PHOSPHATASE [6]: 425.67 u/L | ASPARTATE AMINOTRANSFERASE [6]: 87.67 u/L | BLOOD UREA NITROGEN [6]: 16 mg/dL | CARBON DIOXIDE [6]: 29.33 mmol/L | CHLORIDE [6]: 98 MEQ/L | CHOLESTEROL [6]: 73.33 mg/dL | CREATINE PHOSPHOKINASE [6]: 247.67 u/L | CREATININE [6]: 0.2 mg/dL | GLUCOSE [6]: 158.67 mg/dL | LACTATE DEHYDROGENASE [6]: 90.33 u/L | LIPASE [6]: 12 u/L | POTASSIUM [6]: 5.04 MEQ/L | SODIUM [6]: 140.73 MEQ/L | TOTAL BILIRUBIN [6]: 0.17 mg/dL | TOTAL PROTEIN [6]: 6.1 G/DL | URIC ACID [6]: 0.33 mg/dL | ABSOLUTE BASOPHIL [7]: 0 CELLS/uL | ABSOLUTE EOSINOPHIL [7]: 0 CELLS/uL | ABSOLUTE LYMPHOCYTE [7]: 9972 CELLS/uL | ABSOLUTE MONOCYTE [7]: 151.33 CELLS/uL | ABSOLUTE SEGMENTED NEUTROPHIL [7]: 1610 CELLS/uL | BASOPHIL [7]: 0% | EOSINOPHIL [7]: 0% | ERYTHROCYTE COUNT [7]: 5.32 x10E6/uL | HEMATOCRIT [7]: 33.67% | LEUKOCYTE COUNT [7]: 11.73 x10E3/uL | LYMPHOCYTE [7]: 85% | MEAN CORPUSCULAR HEMOGLOBIN [7]: 24.17 pg | MEAN CORPUSCULAR HEMOGLOBIN CONCENTRATION [7]: 38.23 G/DL | NEUTROPHIL [7]: 13.67% | NUCLEATED RED BLOOD CELLS [7]: 0.33 /100WBC | PLATELET COUNT [7]: 1293.67 x10E3/uL | ALANINE AMINOTRANSFERASE [8]: 53.33 u/L | ALKALINE PHOSPHATASE [8]: 426 u/L | ASPARTATE AMINOTRANSFERASE [8]: 73 u/L | BLOOD UREA NITROGEN [8]: 14.67 mg/dL | CARBON DIOXIDE [8]: 34.67 mmol/L | CHLORIDE [8]: 98 MEQ/L | CREATINE PHOSPHOKINASE [8]: 305 u/L | CREATININE [8]: 0.27 mg/dL | GLUCOSE [8]: 134.67 mg/dL | LACTATE DEHYDROGENASE [8]: 124.33 u/L | LIPASE [8]: 7.67 u/L | PHOSPHORUS [8]: 10.33 mg/dL | POTASSIUM [8]: 5.91 MEQ/L | TOTAL BILIRUBIN [8]: 0.2 mg/dL | TOTAL PROTEIN [8]: 6.23 G/DL | URIC ACID [8]: 0.6 mg/dL
